Usually GI50 stands for the concentration giving 50% growth inhibition.

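1) Cells in 96-well plates. 2) Compound, 48 h, 5 concentrations. 3) Linear interpolation between surrounding doses. 4) Unreached endpoint = highest concentration. GI50: concentration for 50% inhibition of growth.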 The source made the active and inactive calls. Rule as the data show it: active = GI50 up to about 1.1 µM and inactive = higher.

Some test systems named below: CAKI-1; M19-MEL; HOP-18; SK-MEL-2; A498; HOP-92; Malme-3M; NCI/ADR-RES; LOX IMVI; NCI-H226; DMS-273; NCI-H522; CCRF-CEM; SR; TK-10; ACHN.
What all share (test): DTP human tumour cell line panel, 48 h

Turning to `O=C(O)/C=C/c1c[nH]cn1`, the GI50 with CAKI-1, in the assay with M19-MEL, with HOP-18, in the assay with SK-MEL-2, in the assay with A498 and in the assay on HOP-92 was > 500 µM (inactive) throughout. Besides, the GI50 in the assay on Malme-3M, with NCI/ADR-RES, with LOX IMVI, with NCI-H226, in the assay on DMS-273 and with NCI-H522 was > 500 µM (inactive) in each case.

As to `COc1ccc(-c2nnc3c4ccccc4sn23)cc1`, the GI50 is 22.5 µM (inactive) with M19-MEL; 7.23 µM (inactive) in the assay on CCRF-CEM; 23.2 µM (inactive) in the assay with HOP-18; 19 µM (inactive) with SK-MEL-2; 16.6 µM (inactive) in the assay with SR; 34.9 µM (inactive) in the assay on HOP-92. Further, the GI50 in the assay with TK-10 was > 100 µM (inactive); in the assay with LOX IMVI, 14.8 µM (inactive); in the assay on ACHN, 28 µM (inactive); in the assay on DMS-273 it was 10.8 µM (inactive).

In the case of `CCC1CN2CCC1CC2` (stereo not drawn), the GI50 in the assay on M19-MEL, in the assay on CCRF-CEM, with HOP-18, with SK-MEL-2, in the assay on A498 and with Malme-3M was > 100 µM (inactive) throughout. Also, the GI50 with NCI/ADR-RES, with LOX IMVI, with NCI-H226, in the assay with DMS-273 and with NCI-H522 was > 100 µM (inactive) each time.

`O=C1C2C(C(=O)N1OS(=O)(=O)c1ccccc1)N(Cc1ccccc1)C(=O)N2Cc1ccccc1` (stereo not drawn): the GI50 in the assay on CAKI-1, in the assay on M19-MEL, in the assay on CCRF-CEM, in the assay with A498, in the assay on SR and in the assay with HOP-92 was > 100 µM (inactive) each time. In addition, the GI50 with TK-10, in the assay on Malme-3M, in the assay with LOX IMVI, in the assay with NCI-H226, in the assay with ACHN and in the assay with NCI-H522 was > 100 µM (inactive) in each case.

In the case of `CCCC(=O)OC[n+]1ccc2c(C)c3[nH]c4ccc(OC)cc4c3c(C)c2c1`, the GI50 is 0.908 µM (active) in the assay with CAKI-1; 0.555 µM (active) in the assay on M19-MEL; 1.16 µM (inactive) in the assay on SK-MEL-2; 1.02 µM (active) in the assay on A498; 0.0486 µM (active) in the assay with SR; 1.16 µM (inactive) with HOP-92. In addition, the GI50 in the assay on TK-10 is 2.9 µM (inactive); in the assay on Malme-3M, 1.45 µM (inactive); in the assay with LOX IMVI it was 0.23 µM (active); in the assay with NCI-H226, 0.444 µM (active); in the assay on ACHN, 0.215 µM (active); in the assay on DMS-273, 0.0586 µM (active). In addition, the GI50 in the assay with NCI-H522 was 1.09 µM (active).

As to `CC(=O)N(CCN1C(=O)c2ccccc2C1=O)CCN1C(=O)c2ccccc2C1=O`, the GI50 with CAKI-1, with M19-MEL, in the assay with CCRF-CEM, in the assay on SK-MEL-2, with A498 and with SR was > 100 µM (inactive) each time. Also, the GI50 with HOP-92, in the assay with TK-10, in the assay on LOX IMVI, in the assay with ACHN, in the assay on DMS-273 and with NCI-H522 was > 100 µM (inactive) in each case.

As to `COc1c(Cl)cc(S(=O)O)cc1Cl`, the GI50 in the assay with M19-MEL, in the assay on CCRF-CEM, in the assay with SK-MEL-2, with A498, in the assay on TK-10 and in the assay with Malme-3M was > 100 µM (inactive) each time. Further, the GI50 in the assay on LOX IMVI, in the assay with ACHN and in the assay with NCI-H522 was > 100 µM (inactive) throughout.

As for `C[C@H]1[C@@H]2C[C@@H]3O[C@@]34[C@H]3CCC5Cc6nc7c(nc6C[C@@]5(C)[C@]3(O)CC(=O)[C@@]24CO[C@]12OC(C)(C)C[C@@H]2O)CC1CC[C@@H]2C3=C[C@H]4O[C@@]5(OC(C)(CO)C[C@@H]5O)[C@H](C)[C@@]4(O)[C@]3(C)[C@@H](O)CC2[C@]1(C)C7` (stereo partly drawn), the GI50 is 0.0809 µM (active) in the assay on CAKI-1; 2.77 µM (inactive) in the assay with M19-MEL; 0.0105 µM (active) in the assay on CCRF-CEM; > 3.52 µM (inactive) in the assay on HOP-18; 0.0239 µM (active) with SK-MEL-2; 0.0108 µM (active) in the assay with A498. Besides, the GI50 was 0.0254 µM (active) with HOP-92; 0.0381 µM (active) with Malme-3M; > 3.52 µM (inactive) in the assay on NCI/ADR-RES; 0.024 µM (active) in the assay on LOX IMVI; 0.0184 µM (active) with NCI-H226; 0.00345 µM (active) in the assay on DMS-273. The GI50 with NCI-H522 was 0.0955 µM (active).

As for `COC(=O)[C@@H]1c2cc3c(c(O)c2[C@@H](OC)C[C@@]1(C)O)C(=O)c1c(O)cc2c(c1C3=O)OC1O[C@@]2(C)[C@H](O)[C@@H](N(C)C)[C@@H]1O`, the GI50 in the assay with CAKI-1 is 0.26 µM (active); in the assay on M19-MEL it was 0.266 µM (active); in the assay on CCRF-CEM, 0.273 µM (active); in the assay with HOP-18, 0.14 µM (active); in the assay with SK-MEL-2 it was 0.28 µM (active); in the assay on A498 it was 0.257 µM (active). The GI50 in the assay with HOP-92 is 0.0764 µM (active); in the assay on Malme-3M, 0.506 µM (active); with NCI/ADR-RES, 2.06 µM (inactive); with NCI-H226, 0.301 µM (active); with DMS-273, 0.118 µM (active); in the assay with NCI-H522, 0.445 µM (active).

Regarding `COc1cc(C(C)c2cc3c(cc2OCCO)OCO3)cc(OC)c1OC` (stereo not drawn), the GI50 in the assay on CAKI-1 was 5.11 µM (inactive); in the assay with M19-MEL it was 1.66 µM (inactive); in the assay on CCRF-CEM, 1.82 µM (inactive); in the assay with HOP-18 it was > 100 µM (inactive); in the assay on SK-MEL-2 it was 2 µM (inactive); with SR it was 0.299 µM (active). Besides, the GI50 was 18.3 µM (inactive) in the assay with TK-10; > 100 µM (inactive) in the assay with Malme-3M; 2.75 µM (inactive) in the assay on LOX IMVI; 2.86 µM (inactive) in the assay on NCI-H226; 10.1 µM (inactive) with ACHN; 0.413 µM (active) with DMS-273. Also, the GI50 in the assay with NCI-H522 was 0.547 µM (active).

With `Cn1c2ccccc2c(=O)c2c(O)cc3c(c21)C=CC(C)(C)O3` [NORACRONYCINE], the GI50 in the assay on CAKI-1 was 3.05 µM (inactive); with M19-MEL, > 25 µM (inactive); with CCRF-CEM, > 25 µM (inactive); in the assay on HOP-18 it was 13.7 µM (inactive); in the assay on SK-MEL-2, > 25 µM (inactive); in the assay with A498, > 13.5 µM (inactive). Further, the GI50 in the assay on HOP-92, in the assay on Malme-3M, in the assay on NCI/ADR-RES, in the assay with LOX IMVI, in the assay with NCI-H226 and with DMS-273 was > 25 µM (inactive) throughout. In addition, the GI50 in the assay on NCI-H522 was > 25 µM (inactive).

As for `O=C(O)CCCCCCCCC(=O)O` [SEBACIC ACID], the GI50 was > 500 µM (inactive) in the assay with CAKI-1; > 79.3 µM (inactive) in the assay with M19-MEL; 300 µM (inactive) with CCRF-CEM; 387 µM (inactive) in the assay on HOP-18; > 500 µM (inactive) in the assay with SK-MEL-2; > 23.2 µM (inactive) in the assay with A498. For the same compound, the GI50 in the assay on HOP-92 was 5 µM (inactive); with Malme-3M, > 500 µM (inactive); with NCI/ADR-RES it was > 79.3 µM (inactive); in the assay with LOX IMVI it was > 500 µM (inactive); with NCI-H226 it was > 500 µM (inactive); in the assay on DMS-273, 50 µM (inactive). In the assay on NCI-H522, the GI50 was > 500 µM (inactive).

These data come from ChEMBL document CHEMBL1201862, “PubChem BioAssay data set” (2004).
